Measurements published in ChEMBL document CHEMBL1135950, “Decoding region bubble size and aminoglycoside antibiotic binding” (Bioorg Med Chem Lett, 2002).

Tests used:
Type in all cases: nucleic-acid assay, Homo sapiens
[1] = molecular target: Nucleic Acid; test: Dissociation constant for binding to mitochondrial 12S rRNA construct M5 was determined
[2] = molecular target: Nucleic Acid; test: Dissociation constant for binding to mitochondrial 12S rRNA construct M3 was determined
[3] = molecular target: Nucleic Acid; test: Dissociation constant for binding to mitochondrial 12S rRNA construct M2 was determined
[4] = molecular target: Nucleic Acid; test: Dissociation constant for binding to mitochondrial 12S rRNA construct M4 was determined
[5] = system: Nucleic Acid; test: Dissociation constant for binding to mitochondrial 12S rRNA construct M1 was determined; NB= No binding

SMILES	Kd [1] [nM]	Kd [2] [nM]	Kd [3] [nM]	Kd [4] [nM]	Kd [5]
NC[C@H]1O[C@H](O[C@H]2[C@H](O)[C@@H](O[C@H]3O[C@H](CO)[C@@H](O)[C@H](N)[C@H]3O)[C@H](N)C[C@@H]2N)[C@H](O)[C@@H](O)[C@@H]1O [KANAMYCIN]	2640	2080	3460	13600	
NC[C@H]1O[C@H](O[C@H]2[C@H](O)[C@@H](O[C@H]3O[C@H](CO)[C@@H](O)[C@H](N)[C@H]3O)[C@H](N)C[C@@H]2N)[C@H](N)C[C@@H]1O [TOBRAMYCIN]	5370	430	3260	2910	
NC[C@@H]1O[C@H](O[C@H]2[C@@H](O)[C@H](O[C@@H]3[C@@H](O)[C@H](N)C[C@H](N)[C@H]3O[C@H]3O[C@H](CO)[C@@H](O)[C@H](O)[C@H]3N)O[C@@H]2CO)[C@H](N)[C@@H](O)[C@@H]1O [PAROMOMYCIN]	5850	440	3830	12600	

The remaining compounds from weak to strong by Kd [1], led by results:

Kd [1] [nM]	Kd [2] [nM]	Kd [3] [nM]	Kd [4] [nM]	Kd [5]	SMILES
3970	120	140	160		NC[C@@H]1O[C@H](O[C@H]2[C@@H](O)[C@H](O[C@@H]3[C@@H](O)[C@H](N)C[C@H](N)[C@H]3O[C@H]3O[C@H](CN)[C@@H](O)[C@H](O)[C@H]3N)O[C@@H]2CO)[C@H](N)[C@@H](O)[C@@H]1O [FRAMYCETIN]
330	260	270	750	Not Active	CN(C)c1ccc2c(-c3ccc(C(=O)NCC4O[C@H](O[C@@H]5C(O)[C@H](O[C@@H]6C(O)[C@H](N)CC(N)[C@H]6O[C@H]6OC(CO)[C@@H](O)[C@H](O)C6N)O[C@@H]5CO)[C@H](N)C(O)[C@@H]4O)cc3C(=O)[O-])c3ccc(=[N+](C)C)cc-3oc2c1 (stereo partly specified)
